Reference: PubChem BioAssay (NCI)
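96-well plates; 48 h exposure; 5 concentrations. Endpoints by linear interpolation between flanking doses. Not reached: highest tested concentration assigned. TGI is the concentration that stops growth completely.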

Tests used:
Assay in all cases: growth of human tumour cells (NCI), 48 h
786-0 renal = tested on: 786-0 renal
A498 renal = tested on: A498 renal
A549 NSCLC = tested on: A549 NSCLC
ACHN renal = tested on: ACHN renal
BT-549 breast = tested on: BT-549 breast
CAKI-1 renal = tested on: CAKI-1 renal
CCRF-CEM leukemia = tested on: CCRF-CEM leukemia
COLO 205 colon = tested on: COLO 205 colon
DU-145 prostate = tested on: DU-145 prostate
EKVX NSCLC = tested on: EKVX NSCLC
HCC-2998 colon = tested on: HCC-2998 colon
HCT-116 colon = tested on: HCT-116 colon
HCT-15 colon = tested on: HCT-15 colon
HL-60(TB) leukemia = tested on: HL-60(TB) leukemia
HOP-62 NSCLC = tested on: HOP-62 NSCLC
HOP-92 NSCLC = tested on: HOP-92 NSCLC
HS 578T breast = tested on: HS 578T breast
HT29 colon = tested on: HT29 colon
IGROV1 ovarian = tested on: IGROV1 ovarian
K-562 leukemia = tested on: K-562 leukemia
KM12 colon = tested on: KM12 colon
LOX IMVI melanoma = tested on: LOX IMVI melanoma
M14 melanoma = tested on: M14 melanoma
MALME-3M melanoma = tested on: MALME-3M melanoma
MCF7 breast = tested on: MCF7 breast
MDA-MB-231 breast = tested on: MDA-MB-231 breast
MDA-MB-435 = tested on: MDA-MB-435
MDA-N = tested on: MDA-N
MOLT-4 leukemia = tested on: MOLT-4 leukemia
NCI-H226 lung = tested on: NCI-H226 lung
NCI-H23 lung = tested on: NCI-H23 lung
NCI-H460 lung = tested on: NCI-H460 lung
NCI-H522 lung = tested on: NCI-H522 lung
NCI/ADR-RES ovarian = tested on: NCI/ADR-RES ovarian
OVCAR-3 ovarian = tested on: OVCAR-3 ovarian
OVCAR-4 ovarian = tested on: OVCAR-4 ovarian
OVCAR-5 ovarian = tested on: OVCAR-5 ovarian
OVCAR-8 ovarian = tested on: OVCAR-8 ovarian
PC-3 prostate = tested on: PC-3 prostate
RPMI-8226 leukemia = tested on: RPMI-8226 leukemia
SF-268 CNS = tested on: SF-268 CNS
SF-295 CNS = tested on: SF-295 CNS
SF-539 CNS = tested on: SF-539 CNS
SK-MEL-2 melanoma = tested on: SK-MEL-2 melanoma
SK-MEL-28 melanoma = tested on: SK-MEL-28 melanoma
SK-MEL-5 melanoma = tested on: SK-MEL-5 melanoma
SK-OV-3 ovarian = tested on: SK-OV-3 ovarian
SN12C renal = tested on: SN12C renal
SNB-19 CNS = tested on: SNB-19 CNS
SNB-75 CNS = tested on: SNB-75 CNS
SR leukemia = tested on: SR leukemia
SW-620 colon = tested on: SW-620 colon
T-47D breast = tested on: T-47D breast
TK-10 renal = tested on: TK-10 renal
U251 CNS = tested on: U251 CNS
UACC-257 melanoma = tested on: UACC-257 melanoma
UACC-62 melanoma = tested on: UACC-62 melanoma
UO-31 renal = tested on: UO-31 renal
RXF 393 renal = tested on: RXF 393 renal

Compound: COc1ccc(C(c2ccc(OC)cc2)N2C(=O)CCC2C(=O)O)cc1 (stereo not drawn)
- TGI (786-0 renal): > 100 µM
- TGI (A498 renal): > 100 µM
- TGI (A549 NSCLC): > 100 µM
- TGI (ACHN renal): > 100 µM
- TGI (BT-549 breast): > 100 µM
- TGI (CAKI-1 renal): > 100 µM
- TGI (CCRF-CEM leukemia): > 100 µM
- TGI (COLO 205 colon): > 100 µM
- TGI (DU-145 prostate): > 100 µM
- TGI (EKVX NSCLC): > 100 µM
- TGI (HCC-2998 colon): > 100 µM
- TGI (HCT-116 colon): > 100 µM
- TGI (HCT-15 colon): > 100 µM
- TGI (HL-60(TB) leukemia): > 100 µM
- TGI (HOP-62 NSCLC): > 100 µM
- TGI (HOP-92 NSCLC): > 100 µM
- TGI (HS 578T breast): > 100 µM
- TGI (HT29 colon): > 100 µM
- TGI (IGROV1 ovarian): > 100 µM
- TGI (K-562 leukemia): > 100 µM
- TGI (KM12 colon): > 100 µM
- TGI (LOX IMVI melanoma): > 100 µM
- TGI (M14 melanoma): > 100 µM
- TGI (MALME-3M melanoma): > 100 µM
- TGI (MCF7 breast): > 100 µM
- TGI (MDA-MB-231 breast): > 100 µM
- TGI (MDA-MB-435): > 100 µM
- TGI (MDA-N): > 100 µM
- TGI (MOLT-4 leukemia): > 100 µM
- TGI (NCI-H226 lung): > 100 µM
- TGI (NCI-H23 lung): > 100 µM
- TGI (NCI-H460 lung): > 100 µM
- TGI (NCI-H522 lung): > 100 µM
- TGI (NCI/ADR-RES ovarian): > 100 µM
- TGI (OVCAR-3 ovarian): > 100 µM
- TGI (OVCAR-4 ovarian): > 100 µM
- TGI (OVCAR-5 ovarian): > 100 µM
- TGI (OVCAR-8 ovarian): > 100 µM
- TGI (PC-3 prostate): > 100 µM
- TGI (RPMI-8226 leukemia): > 100 µM
- TGI (SF-268 CNS): > 100 µM
- TGI (SF-295 CNS): > 100 µM
- TGI (SF-539 CNS): > 100 µM
- TGI (SK-MEL-2 melanoma): > 100 µM
- TGI (SK-MEL-28 melanoma): > 100 µM
- TGI (SK-MEL-5 melanoma): > 100 µM
- TGI (SK-OV-3 ovarian): > 100 µM
- TGI (SN12C renal): > 100 µM
- TGI (SNB-19 CNS): > 100 µM
- TGI (SNB-75 CNS): > 100 µM
- TGI (SR leukemia): > 100 µM
- TGI (SW-620 colon): > 100 µM
- TGI (T-47D breast): > 100 µM
- TGI (TK-10 renal): > 100 µM
- TGI (U251 CNS): > 100 µM
- TGI (UACC-257 melanoma): > 100 µM
- TGI (UACC-62 melanoma): > 100 µM
- TGI (UO-31 renal): > 100 µM

Compound: CCOC(=O)C1=C(C#N)S(=O)(=O)c2c(oc(C)c2C)N1
- TGI (786-0 renal): > 100 µM
- TGI (A498 renal): > 100 µM
- TGI (A549 NSCLC): > 100 µM
- TGI (ACHN renal): > 100 µM
- TGI (BT-549 breast): > 100 µM
- TGI (CAKI-1 renal): > 100 µM
- TGI (COLO 205 colon): > 100 µM
- TGI (DU-145 prostate): > 100 µM
- TGI (EKVX NSCLC): > 100 µM
- TGI (HCC-2998 colon): > 100 µM
- TGI (HCT-116 colon): > 100 µM
- TGI (HCT-15 colon): > 100 µM
- TGI (HOP-62 NSCLC): > 100 µM
- TGI (HOP-92 NSCLC): > 100 µM
- TGI (HS 578T breast): > 100 µM
- TGI (HT29 colon): > 100 µM
- TGI (IGROV1 ovarian): > 100 µM
- TGI (K-562 leukemia): > 100 µM
- TGI (KM12 colon): > 100 µM
- TGI (LOX IMVI melanoma): > 100 µM
- TGI (M14 melanoma): > 100 µM
- TGI (MALME-3M melanoma): > 100 µM
- TGI (MCF7 breast): > 100 µM
- TGI (MDA-MB-231 breast): > 100 µM
- TGI (MDA-MB-435): > 100 µM
- TGI (MDA-N): > 100 µM
- TGI (MOLT-4 leukemia): > 100 µM
- TGI (NCI-H226 lung): > 100 µM
- TGI (NCI-H23 lung): > 100 µM
- TGI (NCI-H460 lung): > 100 µM
- TGI (NCI-H522 lung): > 100 µM
- TGI (NCI/ADR-RES ovarian): > 100 µM
- TGI (OVCAR-3 ovarian): > 100 µM
- TGI (OVCAR-4 ovarian): > 100 µM
- TGI (OVCAR-5 ovarian): > 100 µM
- TGI (OVCAR-8 ovarian): > 100 µM
- TGI (PC-3 prostate): > 100 µM
- TGI (RPMI-8226 leukemia): > 100 µM
- TGI (SF-268 CNS): > 100 µM
- TGI (SF-295 CNS): > 100 µM
- TGI (SF-539 CNS): > 100 µM
- TGI (SK-MEL-2 melanoma): > 100 µM
- TGI (SK-MEL-28 melanoma): > 100 µM
- TGI (SK-MEL-5 melanoma): > 100 µM
- TGI (SK-OV-3 ovarian): > 100 µM
- TGI (SN12C renal): > 100 µM
- TGI (SNB-19 CNS): > 100 µM
- TGI (SNB-75 CNS): > 100 µM
- TGI (SR leukemia): > 100 µM
- TGI (SW-620 colon): > 100 µM
- TGI (T-47D breast): > 100 µM
- TGI (TK-10 renal): > 100 µM
- TGI (U251 CNS): > 100 µM
- TGI (UACC-257 melanoma): > 100 µM
- TGI (UACC-62 melanoma): > 100 µM
- TGI (UO-31 renal): > 100 µM

Compound: Cc1ccc(O)c(-c2cc(-c3cccc(Br)c3)c(C#N)c(N)n2)c1
- TGI (786-0 renal): > 100 µM
- TGI (A549 NSCLC): 87.1 µM
- TGI (ACHN renal): 49.3 µM
- TGI (BT-549 breast): > 100 µM
- TGI (CAKI-1 renal): 75.6 µM
- TGI (COLO 205 colon): 34.2 µM
- TGI (DU-145 prostate): > 100 µM
- TGI (EKVX NSCLC): 65.5 µM
- TGI (HCC-2998 colon): 48.6 µM
- TGI (HCT-116 colon): 42.4 µM
- TGI (HCT-15 colon): 30.6 µM
- TGI (HL-60(TB) leukemia): 72 µM
- TGI (HOP-62 NSCLC): > 100 µM
- TGI (HS 578T breast): 62.8 µM
- TGI (HT29 colon): 54.7 µM
- TGI (IGROV1 ovarian): 50.9 µM
- TGI (K-562 leukemia): 57.3 µM
- TGI (KM12 colon): 58.9 µM
- TGI (LOX IMVI melanoma): 31.1 µM
- TGI (M14 melanoma): 89.2 µM
- TGI (MALME-3M melanoma): 63.1 µM
- TGI (MCF7 breast): 92 µM
- TGI (MDA-MB-231 breast): 52.7 µM
- TGI (MDA-MB-435): 39.8 µM
- TGI (MDA-N): 79.6 µM
- TGI (MOLT-4 leukemia): 77.1 µM
- TGI (NCI-H226 lung): 44.1 µM
- TGI (NCI-H23 lung): > 100 µM
- TGI (NCI-H460 lung): 55.7 µM
- TGI (NCI-H522 lung): 47.8 µM
- TGI (NCI/ADR-RES ovarian): > 100 µM
- TGI (OVCAR-3 ovarian): > 100 µM
- TGI (OVCAR-4 ovarian): 22.5 µM
- TGI (OVCAR-5 ovarian): > 100 µM
- TGI (OVCAR-8 ovarian): > 100 µM
- TGI (PC-3 prostate): 55.6 µM
- TGI (RPMI-8226 leukemia): 28 µM
- TGI (RXF 393 renal): 62.5 µM
- TGI (SF-268 CNS): > 100 µM
- TGI (SF-295 CNS): 54.2 µM
- TGI (SF-539 CNS): 75.5 µM
- TGI (SK-MEL-2 melanoma): 51.6 µM
- TGI (SK-MEL-5 melanoma): 60 µM
- TGI (SK-OV-3 ovarian): 87.3 µM
- TGI (SN12C renal): 49.7 µM
- TGI (SNB-19 CNS): 45.7 µM
- TGI (SR leukemia): 46.8 µM
- TGI (SW-620 colon): 89.8 µM
- TGI (T-47D breast): 76.2 µM
- TGI (TK-10 renal): 40.2 µM
- TGI (U251 CNS): 35.3 µM
- TGI (UACC-257 melanoma): 52 µM
- TGI (UACC-62 melanoma): 37.4 µM
- TGI (UO-31 renal): 72.7 µM
